Test results as given in patent publication US12275731B2, “Azaindole inhibitors of wild-type and mutant forms of LRRK2” (DANA-FARBER CANCER INSTITUTE, INC., priority 2018, dated 2025).

Experiments:
Assay in all cases: KinomeScan profiling
Assay type in all cases: binding
[1] = target: T1, AMPK-alpha1 (Homo sapiens, UniProt Q13131); details: AMPK-alpha1, 1 μM; read-out: % control
T1 construct: purchased KinomeScan®
Summary of the method: (§1)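 Single-point competition binding screen: 1 μM, DMSO, 468 kinases. Results reported as % control from RLU, normalised to DMSO and positive-control wells. Activity threshold: <35% control.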

[2] = target: EGFR(G719S) (Homo sapiens, UniProt P00533, G719S); details: read-out: % control
Chain of EGFR(G719S) (P00533 25-1210 G719S): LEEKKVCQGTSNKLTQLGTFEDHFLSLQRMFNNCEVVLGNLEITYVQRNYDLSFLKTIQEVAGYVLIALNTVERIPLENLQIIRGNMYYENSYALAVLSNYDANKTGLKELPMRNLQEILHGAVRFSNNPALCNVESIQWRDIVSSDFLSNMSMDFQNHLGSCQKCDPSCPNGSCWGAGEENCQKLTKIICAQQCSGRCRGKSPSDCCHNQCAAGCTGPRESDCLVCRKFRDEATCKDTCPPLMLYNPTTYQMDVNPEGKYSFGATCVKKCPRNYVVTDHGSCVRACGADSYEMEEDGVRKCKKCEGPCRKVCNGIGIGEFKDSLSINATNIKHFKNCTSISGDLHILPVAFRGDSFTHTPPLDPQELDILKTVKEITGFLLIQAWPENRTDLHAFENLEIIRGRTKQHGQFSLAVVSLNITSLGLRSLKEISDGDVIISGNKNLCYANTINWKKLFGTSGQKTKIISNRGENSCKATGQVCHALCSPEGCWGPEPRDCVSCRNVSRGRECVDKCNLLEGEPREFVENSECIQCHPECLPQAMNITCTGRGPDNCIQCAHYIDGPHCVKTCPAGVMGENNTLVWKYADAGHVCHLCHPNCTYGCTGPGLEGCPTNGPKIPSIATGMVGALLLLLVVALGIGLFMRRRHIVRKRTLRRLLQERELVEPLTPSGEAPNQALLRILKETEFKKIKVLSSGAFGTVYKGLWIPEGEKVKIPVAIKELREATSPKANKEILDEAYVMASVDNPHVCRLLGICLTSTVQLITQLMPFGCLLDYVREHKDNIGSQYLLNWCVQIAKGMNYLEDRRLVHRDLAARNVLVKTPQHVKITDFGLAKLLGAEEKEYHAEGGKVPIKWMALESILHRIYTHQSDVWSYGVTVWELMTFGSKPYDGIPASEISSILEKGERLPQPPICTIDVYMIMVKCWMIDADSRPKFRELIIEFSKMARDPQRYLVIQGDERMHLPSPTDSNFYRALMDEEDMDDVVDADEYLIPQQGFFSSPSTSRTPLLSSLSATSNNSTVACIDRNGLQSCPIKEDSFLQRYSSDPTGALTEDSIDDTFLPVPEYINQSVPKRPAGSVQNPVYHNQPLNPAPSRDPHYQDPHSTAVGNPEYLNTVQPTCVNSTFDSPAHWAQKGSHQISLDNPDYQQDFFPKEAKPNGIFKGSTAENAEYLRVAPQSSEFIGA
Summary of the method: as §1

[3] = target: PAK2 (Homo sapiens, UniProt Q13177); details: PAK2, 1 μM; read-out: % control
Chain of PAK2 (Q13177 whole entry): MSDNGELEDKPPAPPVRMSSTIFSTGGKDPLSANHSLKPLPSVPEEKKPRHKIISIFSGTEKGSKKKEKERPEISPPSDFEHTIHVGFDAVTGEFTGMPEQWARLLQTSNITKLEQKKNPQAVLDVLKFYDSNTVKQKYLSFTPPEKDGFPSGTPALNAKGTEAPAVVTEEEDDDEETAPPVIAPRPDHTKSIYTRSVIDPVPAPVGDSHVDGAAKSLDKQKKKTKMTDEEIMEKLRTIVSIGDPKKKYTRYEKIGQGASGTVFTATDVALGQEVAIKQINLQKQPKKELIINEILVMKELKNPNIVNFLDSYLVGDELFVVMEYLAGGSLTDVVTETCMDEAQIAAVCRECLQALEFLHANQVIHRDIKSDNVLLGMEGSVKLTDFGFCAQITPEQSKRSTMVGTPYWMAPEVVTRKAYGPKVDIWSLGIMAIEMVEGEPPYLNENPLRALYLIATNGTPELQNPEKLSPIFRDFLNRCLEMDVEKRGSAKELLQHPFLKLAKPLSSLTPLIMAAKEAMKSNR
Summary of the method: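 Compounds were screened at 1 μM in DMSO across a 468-kinase KinomeScan panel. Binding was expressed as % control, scaled between a positive control (0%) and DMSO (100%) using luminescence signal. A value under 35% counted as active.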

[4] = target: T2, RIPK1 (Homo sapiens, UniProt Q13546); details: RIPK1, 1 μM; read-out: % control
T2 sequence (Q13546 1-671): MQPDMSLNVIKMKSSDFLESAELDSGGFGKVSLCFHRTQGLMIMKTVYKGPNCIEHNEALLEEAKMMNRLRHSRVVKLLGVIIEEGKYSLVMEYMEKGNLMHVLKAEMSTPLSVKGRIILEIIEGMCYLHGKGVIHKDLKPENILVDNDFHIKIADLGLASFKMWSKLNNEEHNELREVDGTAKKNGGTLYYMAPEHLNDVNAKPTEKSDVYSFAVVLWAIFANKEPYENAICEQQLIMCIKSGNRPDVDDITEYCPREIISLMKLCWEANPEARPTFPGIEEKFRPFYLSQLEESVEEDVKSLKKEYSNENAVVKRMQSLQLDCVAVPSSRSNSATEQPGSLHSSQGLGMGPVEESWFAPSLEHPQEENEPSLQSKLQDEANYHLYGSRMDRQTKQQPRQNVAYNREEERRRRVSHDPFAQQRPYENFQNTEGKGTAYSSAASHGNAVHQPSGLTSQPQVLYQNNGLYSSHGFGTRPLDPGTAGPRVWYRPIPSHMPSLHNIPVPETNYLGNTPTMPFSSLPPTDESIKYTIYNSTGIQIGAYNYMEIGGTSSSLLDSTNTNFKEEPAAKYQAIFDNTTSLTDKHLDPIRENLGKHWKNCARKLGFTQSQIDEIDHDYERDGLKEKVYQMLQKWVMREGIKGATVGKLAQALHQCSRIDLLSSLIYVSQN
Summary of the method: as §1

[5] = target: T3, TAOK1 (Homo sapiens, UniProt Q7L7X3); details: TAOK1, 1 μM; read-out: % control
T3 construct: purchased KinomeScan® (panel service)
T3 sequence (Q7L7X3 1-1001): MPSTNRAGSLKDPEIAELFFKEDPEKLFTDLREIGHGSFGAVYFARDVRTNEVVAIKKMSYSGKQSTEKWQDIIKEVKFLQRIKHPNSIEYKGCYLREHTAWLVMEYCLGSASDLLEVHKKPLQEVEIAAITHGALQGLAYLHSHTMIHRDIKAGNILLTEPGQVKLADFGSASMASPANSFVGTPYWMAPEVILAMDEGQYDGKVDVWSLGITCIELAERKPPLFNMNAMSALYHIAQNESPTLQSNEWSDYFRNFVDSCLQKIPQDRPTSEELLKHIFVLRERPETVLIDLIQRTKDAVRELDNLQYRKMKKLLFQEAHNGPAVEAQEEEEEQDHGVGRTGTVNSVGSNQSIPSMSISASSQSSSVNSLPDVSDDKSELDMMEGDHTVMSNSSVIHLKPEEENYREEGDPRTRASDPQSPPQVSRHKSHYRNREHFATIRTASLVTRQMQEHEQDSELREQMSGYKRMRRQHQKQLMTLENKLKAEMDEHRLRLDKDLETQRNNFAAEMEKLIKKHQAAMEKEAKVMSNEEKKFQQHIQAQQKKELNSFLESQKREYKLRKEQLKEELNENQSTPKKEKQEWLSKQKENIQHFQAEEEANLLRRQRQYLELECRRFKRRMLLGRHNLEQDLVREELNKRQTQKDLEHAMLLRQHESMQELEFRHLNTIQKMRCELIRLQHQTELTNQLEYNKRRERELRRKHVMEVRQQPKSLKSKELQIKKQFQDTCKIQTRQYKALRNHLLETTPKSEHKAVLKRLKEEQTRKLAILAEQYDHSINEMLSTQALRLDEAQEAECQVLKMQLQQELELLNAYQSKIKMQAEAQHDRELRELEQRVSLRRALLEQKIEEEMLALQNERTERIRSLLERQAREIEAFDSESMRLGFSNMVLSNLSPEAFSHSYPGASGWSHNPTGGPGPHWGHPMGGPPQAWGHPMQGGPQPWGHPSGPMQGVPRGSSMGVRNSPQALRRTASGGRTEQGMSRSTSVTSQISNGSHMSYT
Summary of the method: as §1

[6] = target: TRKA (Homo sapiens, UniProt P04629); details: read-out: % control
Chain of TRKA (P04629 33-796): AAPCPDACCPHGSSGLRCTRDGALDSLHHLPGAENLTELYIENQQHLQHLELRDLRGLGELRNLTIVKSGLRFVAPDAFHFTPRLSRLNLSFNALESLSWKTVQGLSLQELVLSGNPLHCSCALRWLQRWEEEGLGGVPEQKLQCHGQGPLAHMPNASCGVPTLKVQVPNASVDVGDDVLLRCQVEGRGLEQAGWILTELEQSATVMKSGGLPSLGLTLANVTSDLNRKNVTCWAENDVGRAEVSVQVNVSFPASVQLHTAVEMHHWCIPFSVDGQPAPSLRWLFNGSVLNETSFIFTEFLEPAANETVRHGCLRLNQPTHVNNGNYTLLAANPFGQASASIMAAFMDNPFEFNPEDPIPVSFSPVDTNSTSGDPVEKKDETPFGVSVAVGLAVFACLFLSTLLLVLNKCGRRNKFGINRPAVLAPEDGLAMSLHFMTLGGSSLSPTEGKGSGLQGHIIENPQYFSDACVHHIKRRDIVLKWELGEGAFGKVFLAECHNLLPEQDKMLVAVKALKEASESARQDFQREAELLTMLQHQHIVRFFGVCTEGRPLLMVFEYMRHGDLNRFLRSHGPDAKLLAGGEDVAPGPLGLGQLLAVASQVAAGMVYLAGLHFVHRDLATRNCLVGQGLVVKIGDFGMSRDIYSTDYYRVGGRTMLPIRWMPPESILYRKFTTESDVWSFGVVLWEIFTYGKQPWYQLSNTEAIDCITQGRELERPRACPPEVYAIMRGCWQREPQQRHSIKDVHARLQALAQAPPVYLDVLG
Summary of the method: as §1

T1 sequence (Q13131 whole entry): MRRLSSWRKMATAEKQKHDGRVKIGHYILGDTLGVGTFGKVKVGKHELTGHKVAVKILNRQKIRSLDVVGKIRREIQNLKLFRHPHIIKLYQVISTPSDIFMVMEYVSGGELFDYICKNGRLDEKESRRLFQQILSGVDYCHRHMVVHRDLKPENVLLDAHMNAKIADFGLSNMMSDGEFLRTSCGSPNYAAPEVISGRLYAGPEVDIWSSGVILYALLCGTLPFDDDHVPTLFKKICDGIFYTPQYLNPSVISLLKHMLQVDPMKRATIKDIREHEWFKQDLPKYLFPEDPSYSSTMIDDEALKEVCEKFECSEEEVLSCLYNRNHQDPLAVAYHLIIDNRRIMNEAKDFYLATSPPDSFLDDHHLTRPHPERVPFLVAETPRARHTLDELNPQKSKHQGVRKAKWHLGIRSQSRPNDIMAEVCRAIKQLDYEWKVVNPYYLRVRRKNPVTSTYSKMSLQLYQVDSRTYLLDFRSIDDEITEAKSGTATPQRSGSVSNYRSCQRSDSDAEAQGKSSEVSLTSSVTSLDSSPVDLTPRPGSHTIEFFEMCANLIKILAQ

Structure (SMILES)	remaining binding at 1 µM [1] [%]	remaining binding at 1 µM [2] [%]	remaining binding at 1 µM [3] [%]	remaining binding at 1 µM [4] [%]	remaining binding at 1 µM [5] [%]	remaining binding at 1 µM [6] [%]
CNc1c(-c2cnn([C@H]3CCN(C(C)=O)C[C@@H]3F)c2)cnc2[nH]cc(Cl)c12 [Compound 77, 1-((3S,4S)-4-(4-(3-chloro-4-(methylamino)-1H-pyrrolo[2,3-b]pyridin-5-yl)-1H-pyrazol-1-yl)-3-fluoropiperidin-1-yl)ethan-1-one]	100	100	100	19	100	0.65
O=C(c1ccc(-c2cnc3[nH]cc(Cl)c3c2NC2CCCC2)cc1)N1CCC(N2CCOCC2)CC1 [Compound 101, (4-(3-chloro-4-(cyclopentylamino)-1H-pyrrolo[2,3-b]pyridin-5-yl)phenyl)(4-morpholinopiperidin-1-yl)methanone]	78	100	80	47	99	49
CNc1c(-c2ccc(C(=O)N3CCC(N4CCOCC4)CC3)cc2)cnc2[nH]cc(Cl)c12 [Compound 96, (4-(3-chloro-4-(methylamino)-1H-pyrrolo[2,3-b]pyridin-5-yl)phenyl)(4-morpholinopiperidin-1-yl)methanone]	75	100	96	44	96	11
